Data reported in patent publication EP0275215B1, “Contrast agents for the gastrointestinal tract” (GUERBET S.A., priority 1987, dated 1988).

What was measured:
[1] = Binding of metal complexes to particulate carrier (1H NMR relaxation of supernatant); details: to sodium phosphate glass; 0.4ml 50mM metal complex, pH 7.5, 3 minutes
[2] = as above; details: to aluminium hydroxide; 0.4ml 50mM metal complex, pH 7.5, 3 minutes
[3] = as above; details: to calcium hydroxide; 0.4ml 50mM metal complex, pH 7.5, 3 minutes
[4] = as above; details: to calcium phosphate neutral; 0.4ml 50mM metal complex, pH 7.5, 3 minutes
[5] = as above; details: to magnesium hydroxide; 0.4ml 50mM metal complex, pH 7.5, 3 minutes
[6] = as above; details: to calcium phosphate basic; 0.4ml 50mM metal complex, pH 7.5, 3 minutes
[7] = as above; details: to aluminium phosphate; 0.4ml 50mM metal complex, pH 7.5, 3 minutes
[8] = as above; details: to calcium pyrophosphate; 0.4ml 50mM metal complex, pH 7.5, 3 minutes
[9] = as above; details: to silica; 0.4ml 50mM metal complex, pH 7.5, 3 minutes
[10] = as above; details: to magnesium trisilicate; 0.4ml 50mM metal complex, pH 7.5, 3 minutes
[11] = Stability of 153Gd labelled adducts in acid solution; type: physicochemical; details: 5ml 0.2M HCl, 24hrs, percentage of the original activity
Method: The stability of the adducts in acid solution was assayed using ¹⁵³Gd labelled adducts. The adducts were prepared as in the binding assays described previously. 5ml of 0.2M HCl was then added to the adduct which was resuspended and left for 24hrs. The suspensions were then filtered through a glass sinter and washed with 5ml distilled water. The total filtrate was then placed into an ion chamber and the total activity measured.

[12] = Binding of 153Gd labelled gadolinium complexes, radioactive assay; details: total activity of the filtrate as percentage of the original; 12.5mM Gd, 25mM phosphonate where present
Method: The binding of gadolinium complexes was also assayed using ¹⁵³Gd labelled solutions. The particulates were used as suspensions (250mg/ml) and isolated by centrifugation. 0.4ml of a radioactively labelled gadolinium complex was then added and the solid resuspended. After three minutes the solid was filtered through a glass sinter and washed with water (≃10ml). The total activity of the filtrate was measured and expressed as a percentage of the original. The gadolinium concentration of the complex in this assay was 12.5mM and the concentration of phosphonate (where present) was 25mM. A further assay involved the addition of 25mM, and 37.5mM Gd with concomitant increase in the phosphonate concentration.

[13] = Binding of metal complexes to particulate carrier (1H NMR relaxation of supernatant); details: to calcium phosphate ortho; 0.4ml 50mM metal complex, pH 7.5, 3 minutes

% Bound [1] [%]	% Bound [2] [%]	% Bound [3] [%]	% Bound [4] [%]	% Bound [5] [%]	% Bound [6] [%]	% Bound [8] [%]	% Bound [9] [%]	% Bound [10] [%]	PERCENTAGE ACTIVITY IN SUPERNATANT ([11]; adduct with Ca₂P₂O₇) [%]	PERCENTAGE ACTIVITY IN SUPERNATANT ([11]; adduct with Ca₃(PO₄)₂) [%]	BINDING TO CaPO₄ - RADIOACTIVE ASSAY [12] [%]	BINDING TO CaPYROPHOSPHATE - RADIOACTIVE ASSAY [12] [%]	Compound	% Bound [7] [%]	% Bound [13] [%]
41	89	98	92	96	96	50	46	93	–	–	–	–	[Cl][Fe]([Cl])[Cl] [FeCl₃]	78	–
48	98	99	98	99	99	68	66	89	0.41	0.54	2.07	0.14	[Cl][Gd]([Cl])[Cl] [GdCl₃]	–	–

Compound	% Bound [1] [%]	% Bound [2] [%]	% Bound [3] [%]	% Bound [4] [%]	% Bound [5] [%]	% Bound [6] [%]	% Bound [8] [%]	% Bound [9] [%]	% Bound [10] [%]	PERCENTAGE ACTIVITY IN SUPERNATANT ([11]; adduct with Ca₂P₂O₇) [%]	PERCENTAGE ACTIVITY IN SUPERNATANT ([11]; adduct with Ca₃(PO₄)₂) [%]	BINDING TO CaPO₄ - RADIOACTIVE ASSAY [12] [%]	BINDING TO CaPYROPHOSPHATE - RADIOACTIVE ASSAY [12] [%]	% Bound [7] [%]	% Bound [13] [%]
ferric citrate	26	80	74	68	89	80	28	16	50	–	–	–	–	18	82
